Assay [1] addresses T1, porcine beta-2 adrenoceptor (Sus scrofa, UniProt Q28997).
T1 construct: expressed in transfected cells; host or cells: CHO cells
Nature of the assay: cAMP assay in CHO cells transfected with the porcine beta-2 adrenoceptor. Format: cell-based. To be noted: cAMP (DiscoveRx Hit Hunter cAMP II) in CHO cells transfected with porcine beta-2 adrenoceptor, 30 minutes with compound, 0.5 mM IBMX. The protocol: (§1) CHO cells transfected with the bovine or porcine beta-2 adrenceptors were maintained in culture in DMEM/HAMS F12+10% FBS+2 mM glutamine+500 μg/ml geneticin (for the porcine receptor the medium was supplement with 1.5 mM HEPES) at 37° C. with a 5% CO2 atmosphere.
(§2) Cells were plated into 96 well viewplates in medium and incubated overnight at 37° C. with a 5% CO2 atmosphere. The cells were pre-incubated with 0.5 mM IBMX in PBS for 30 minutes prior to incubation with increasing concentrations of experimental compound (5×10^−12 to 10^−5 M) for 30 minutes at 37° C. with a 5% CO2 atmosphere. At the end of the incubation time the compound was removed and the cells assayed for cAMP using the DiscoveRx Hit Hunter cAMP II™ assay kit.
(§3) Duplicate samples were run for each experimental compound and the data generated was analysed using EC50 analysis software in Graphpad Prism.

Assay [2] concerns the target T2, bovine beta-2 adrenoceptor (Bos taurus, UniProt Q28044).
T2 construct: expressed in transfected cells; host or cells: CHO cells
Put plainly: cAMP assay in CHO cells transfected with the bovine beta-2 adrenoceptor. It is filed as cell-based. To be noted: cAMP (DiscoveRx Hit Hunter cAMP II) in CHO cells transfected with bovine beta-2 adrenoceptor, 30 minutes with compound, 0.5 mM IBMX. Here is the method: as §1, §2, §3
Background: Cyclic AMP is a second messenger, typically raised through Gs and lowered through Gi signalling.

T1 sequence (Q28997 whole entry): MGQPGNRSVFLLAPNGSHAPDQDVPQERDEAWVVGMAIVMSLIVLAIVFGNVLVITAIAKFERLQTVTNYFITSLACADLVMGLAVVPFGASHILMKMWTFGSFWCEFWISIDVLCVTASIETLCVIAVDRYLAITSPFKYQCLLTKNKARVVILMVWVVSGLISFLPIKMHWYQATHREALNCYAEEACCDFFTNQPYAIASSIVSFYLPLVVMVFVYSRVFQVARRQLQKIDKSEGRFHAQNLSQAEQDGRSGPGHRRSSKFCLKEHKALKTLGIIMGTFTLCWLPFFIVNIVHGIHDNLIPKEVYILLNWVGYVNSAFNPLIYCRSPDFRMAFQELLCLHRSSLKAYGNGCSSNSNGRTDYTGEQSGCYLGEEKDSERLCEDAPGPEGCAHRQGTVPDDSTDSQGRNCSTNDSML
T2 sequence (Q28044 whole entry): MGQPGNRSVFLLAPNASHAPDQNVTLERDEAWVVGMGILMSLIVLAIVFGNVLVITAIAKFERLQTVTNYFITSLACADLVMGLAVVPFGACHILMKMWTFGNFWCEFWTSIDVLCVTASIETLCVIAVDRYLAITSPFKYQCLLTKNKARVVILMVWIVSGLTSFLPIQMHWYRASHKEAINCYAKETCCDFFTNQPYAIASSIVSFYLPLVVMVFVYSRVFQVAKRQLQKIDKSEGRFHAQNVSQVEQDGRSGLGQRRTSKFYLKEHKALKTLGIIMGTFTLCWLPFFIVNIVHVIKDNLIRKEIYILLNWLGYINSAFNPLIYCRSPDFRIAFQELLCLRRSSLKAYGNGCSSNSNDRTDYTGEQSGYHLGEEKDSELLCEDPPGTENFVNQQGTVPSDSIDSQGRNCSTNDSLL

As usually defined, the EC50 is the concentration needed to bring the measured effect to its halfway point. Regarding `CC(CCc1ccc(O)cc1)N[C@@H]1CCn2c(=O)[nH]c3cccc(c32)[C@H]1O` (single isomer, unassigned) [Example 2c, 7-Hydroxy-6-{[3-(4-hydroxyphenyl)-1-methylpropyl]amino}-4,5,6,7-tetrahydroimidazo[4,5,1-jk][1]benzazepin-2(1H)-on], the results for the half-maximal effective concentration (EC50) in assay [1] and in assay [2] were 2.9 nM and 13.1 nM, respectively.
The like results for `CC(CCc1ccc(O)cc1)N[C@@H]1CCn2c(=O)[nH]c3cccc(c32)[C@H]1O` (single isomer, unassigned) [Example 2a, 7-Hydroxy-6-{[3-(4-hydroxyphenyl)-1-methylpropyl]amino}-4,5,6,7-tetrahydroimidazo[4,5,1-jk][1]benzazepin-2(1H)-on] were, in that order, 6.1 nM and 13.4 nM.
On to `CC(CCc1cc(F)cc(Cl)c1O)N[C@@H]1CCn2c(=O)[nH]c3cccc(c32)[C@H]1O` (mixture of isomers) [Example 27, 6-{[3-(3-Chloro-5-fluoro-2-hydroxyphenyl)-1-methylpropyl]amino}-7-hydroxy-4,5,6,7-tetrahydroimidazo[4,5,1-jk][1]benzazepin-2(1H)-one], for which the values for the EC50 in assay [1] and in assay [2] were 2.2 nM and 0.6 nM, respectively.
The like results for `CC(CCc1ccc(Cl)cc1Cl)N[C@@H]1CCn2c(=O)[nH]c3cccc(c32)[C@H]1O` (mixture of isomers) [Example 29, 6-{[3-(2,4-Dichlorophenyl)-1-methylpropyl]amino}-7-hydroxy-4,5,6,7-tetrahydroimidazo[4,5,1-jk][1]benzazepin-2(1H)-one] were, in that order, 6.4 nM and 6.9 nM.
In the case of `CC(CCc1ccc2c(c1)CCO2)N[C@@H]1CCn2c(=O)[nH]c3cccc(c32)[C@H]1O` (single isomer, unassigned) [Example 3c, 6-{[3-(2,3-Dihydro-1-benzofuran-5-yl)-1-methylpropyl]amino}-7-hydroxy-4,5,6,7-tetrahydroimidazo[4,5,1-jk][1]benzazepin-2(1H)-one], the EC50 in assay [1] came to 5.6 nM; in assay [2], 27.1 nM.
The like results for `CC(CCc1cccc(C(N)=O)c1)NC1CCn2c(=O)[nH]c3cccc(c32)C1O` (single isomer, unassigned) [Example 66, 3-[3-{[7-Hydroxy-2-oxo-1,2,4,5,6,7-hexahydroimidazo[4,5,1-jk][1]benzazepin-6-yl]amino}butyl]benzamide] were, in that order, 141 nM and 137 nM.
For `C[C@H](CCc1cccc(N)c1)N[C@@H]1CCn2c(=O)[nH]c3cccc(c32)[C@H]1O` (single isomer, unassigned) [Example 46, 6-{[3-(3-Aminophenyl)-1-methylpropyl]amino}-7-hydroxy-4,5,6,7-tetrahydroimidazo[4,5,1-jk][1]benzazepin-2(1H)-one], in that order: 28.9 nM and 33.8 nM.
For the compound `CC(CCc1cccc(O)c1Cl)N[C@@H]1CCn2c(=O)[nH]c3cccc(c32)[C@H]1O` (single isomer, unassigned) [Example 50, 6-{[3-(2-Chloro-3-hydroxyphenyl)-1-methylpropyl]amino}-7-hydroxy-4,5,6,7-tetrahydroimidazo[4,5,1-jk][1]benzazepin-2(1H)-one], the EC50 came out at 1.3 nM in assay [1] and 1.7 nM in assay [2].
With `CC(CCc1ccc(F)cc1O)N[C@@H]1CCn2c(=O)[nH]c3cccc(c32)[C@H]1O` (mixture of isomers) [Example 24, 6-{[3-(4-Fluoro-2-hydroxyphenyl)-1-methylpropyl]amino}-7-hydroxy-4,5,6,7-tetrahydroimidazo[4,5,1-jk][1]benzazepin-2(1H)-one], the concentration for a half-maximal effect (EC50) in assay [1] was 4.2 nM; in assay [2], 2.7 nM.
Turning to `CC(CCc1cc(Cl)cc(Cl)c1O)N[C@@H]1CCn2c(=O)[nH]c3cccc(c32)[C@H]1O` (mixture of isomers) [Example 25, 6-{[3-(3,5-Dichloro-2-hydroxyphenyl)-1-methylpropyl]amino}-7-hydroxy-4,5,6,7-tetrahydroimidazo[4,5,1-jk][1]benzazepin-2(1H)-one], the EC50 in assay [1] was determined as 2.7 nM; in assay [2] it was 2.2 nM.
Regarding `CNC(=O)c1cccc(CCC(C)NC2CCn3c(=O)[nH]c4cccc(c43)C2O)c1` (single isomer, unassigned) [Example 62, 3-[3-{[7-Hydroxy-2-oxo-1,2,4,5,6,7-hexahydroimidazo[4,5,1-jk][1]benzazepin-6-yl]amino}butyl]-N-methylbenzamide], the EC50 was 18.9 nM in assay [1] and 24.3 nM in assay [2].
For `CC(CCc1ccccc1)N[C@@H]1CCn2c(=O)[nH]c3cccc(c32)[C@H]1O` (single isomer, unassigned) [Example 9d, 7-Hydroxy-6-[(1-methyl-3-phenylpropyl)amino]-4,5,6,7-tetrahydroimidazo[4,5,1-jk][1]benzazepin-2(1H)-one], in that order: 2.3 nM and 5.9 nM.
For `CC(CCc1c(F)cccc1Cl)N[C@@H]1CCn2c(=O)[nH]c3cccc(c32)[C@H]1O` (mixture of isomers) [Example 32, 6-{[3-(2-Chloro-6-fluorophenyl)-1-methylpropyl]amino}-7-hydroxy-4,5,6,7-tetrahydroimidazo[4,5,1-jk][1]benzazepin-2(1H)-one], in that order: 2.9 nM and 8.6 nM.
For `Cc1cc(CCC(C)NC2CCn3c(=O)[nH]c4cccc(c43)C2O)cc(C)c1O` (stereo not drawn) [Example 15, 7-Hydroxy-6-{[3-(4-hydroxy-3,5-dimethylphenyl)-1-methylpropyl]amino}-4,5,6,7-tetrahydroimidazo[4,5,1-jk][1]benzazepin-2(1H)-one], in that order: 48.7 nM and 221 nM.
As for `CCC(=O)Nc1cccc(CCC(C)NC2CCn3c(=O)[nH]c4cccc(c43)C2O)c1` (single isomer, unassigned) [Example 61, N-{3-[3-{[7-Hydroxy-2-oxo-1,2,4,5,6,7-hexahydroimidazo[4,5,1-jk][1]benzazepin-6-yl]amino}butyl]phenyl}propanamide], the concentration giving a half-maximal response (EC50) in assay [1] came to 12.5 nM; in assay [2], 12 nM.
For `CC(CCc1cc(Cl)ccc1O)N[C@@H]1CCn2c(=O)[nH]c3cccc(c32)[C@H]1O` (single isomer, unassigned) [Example 19b, 6-{[3-(5-Chloro-2-hydroxyphenyl)-1-methylpropyl]amino}-7-hydroxy-4,5,6,7-tetrahydroimidazo[4,5,1-jk][1]benzazepin-2(1H)-one], in that order: 101 nM and 123 nM.
Take `CC(CCc1ccc(C(F)(F)F)cc1)N[C@@H]1CCn2c(=O)[nH]c3cccc(c32)[C@H]1O` (mixture of isomers) [Example 18, 7-Hydroxy-6-({1-methyl-3-[4-(trifluoromethyl)phenyl]propyl}amino)-4,5,6,7-tetrahydroimidazo[4,5,1-jk][1]benzazepin-2(1H)-one]: the EC50 in assay [1] worked out at 10.7 nM; in assay [2] it was 29.6 nM.
Take `CC(CCc1cccc(F)c1O)N[C@@H]1CCn2c(=O)[nH]c3cccc(c32)[C@H]1O` (single isomer, unassigned) [Example 28a]: the EC50 in assay [1] was 1.8 nM; in assay [2] it was 1.5 nM.
The like results for `CC(CCc1ccc(OCC2CC2)cc1)N[C@@H]1CCn2c(=O)[nH]c3cccc(c32)[C@H]1O` (mixture of isomers) [Example 1a, 6-({3-[4-(Cyclopropylmethoxy)phenyl]-1-methylpropyl}amino)-7-hydroxy-4,5,6,7-tetrahydroimidazo[4,5,1-jk][1]benzazepin-2(1H)-one] were, in that order, 5.9 nM and 14 nM.
Consider `CC(CCc1ccc(O)c(F)c1)NC1CCn2c(=O)[nH]c3cccc(c32)C1O` (single isomer, unassigned) [Example 36, 6-{[3-(3-Fluoro-4-hydroxyphenyl)-1-methylpropyl]amino}-7-hydroxy-4,5,6,7-tetrahydroimidazo[4,5,1-jk][1]benzazepin-2(1H)-one], for which the half-maximal effective concentration (EC50) in assay [1] worked out at 2.2 nM; in assay [2], 1.4 nM.
For `CC(CCc1cc(F)ccc1O)N[C@@H]1CCn2c(=O)[nH]c3cccc(c32)[C@H]1O` (single isomer, unassigned) [Example 7a, 6-{[3-(5-Fluoro-2-hydroxyphenyl)-1-methylpropyl]amino}-7-hydroxy-4,5,6,7-tetrahydroimidazo[4,5,1-jk][1]benzazepin-2(1H)-one], the EC50 came out at 104 nM in assay [1] and 77.7 nM in assay [2].
The like results for `CC(CCc1ccc(F)cc1)N[C@@H]1CCn2c(=O)[nH]c3cccc(c32)[C@H]1O` (mixture of isomers) [Example 23, 6-{[3-(4-Fluorophenyl)-1-methylpropyl]amino}-7-hydroxy-4,5,6,7-tetrahydroimidazo[4,5,1-jk][1]benzazepin-2(1H)-one] were, in that order, 10.5 nM and 15.8 nM.
The like results for `CC(CCc1ccc(O)c(F)c1F)NC1CCn2c(=O)[nH]c3cccc(c32)C1O` (single isomer, unassigned) [Example 37, 6-{[3-(2,3-Difluoro-4-hydroxyphenyl)-1-methylpropyl]amino}-7-hydroxy-4,5,6,7-tetrahydroimidazo[4,5,1-jk][1]benzazepin-2(1H)-one] were, in that order, 1.9 nM and 2.8 nM.
The like results for `CC(CCc1ccc(C(=O)NCC(F)(F)F)cc1)N[C@@H]1CCn2c(=O)[nH]c3cccc(c32)[C@H]1O` (single isomer, unassigned) [Example 52, 4-[-3-{[7-Hydroxy-2-oxo-1,2,4,5,6,7-hexahydroimidazo[4,5,1-jk][1]benzazepin-6-yl]amino}butyl]-N-(2,2,2-trifluoroethyl)benzamide] were, in that order, 38.4 nM and 7.7 nM.

These data come from US20080161288A1, “COMPOUNDS” (Pfizer Inc., priority 2006, published 2008).
